From patent publication US20060019270A1, “Global DNA methylation assessment using bisulfite PCR” (Board of Regents The University of Texas System, priority 2004, published 2006)

Experiments:
[1] = system: Alu element methylation in Hct116 cells; assay: COBRA (MboI) of Alu repetitive element PCR, Hct116 cells treated with DAC; format: cell-based, human; settings: 5 μM DAC for three days, 29% prior to treatment
Experimental: (§1) Hct116, RKO and SW48, colon cancer cell lines (American Type Culture Collection, Manassas, Va.), were cultured using standard methods. Cells were treated with 5 μM 5-aza-2′deoxycytidine (DAC) for three days prior to being harvested. DNA from cell lines and peripheral blood leukocytes was extracted using phenol-chloroform extraction methods well known to one with skill on the art.
(§2) Bisulfite modification of genomic DNA is known in the art (see Clark et. al, 1994). In brief, 1.5 μg prepared 10 mM hydroquinone (Sigma) and 520 μl of 3M Sodium Bisulfite (Sigma) at pH=5.0 were added and mixed. The samples were overlayed with mineral oil to prevent evaporation and incubated at 50° C. for 16 hours. […] Bisulfite treated DNA was stored at −20° C. until ready for use.
(§3) Methylation analysis of Alu repetitive elements was performed initially by the COBRA assay. […] The digested PCR product was then separated by polyacrylamide gel electrophoresis or the PCR products were quantitated using a capillary electrophoresis system, an Agilent 2100 Bioanalyzer (Agilent Technologies, Palo Alto, Calif.).
(§4) In order to test whether Alu element […] LINE-1 methylation could approximate global methylation, COBRA, restriction digestion of the repetitive element PCR product, was used to quantitate DNA methylation in cell lines treated with 5-aza-2′deoxycytidine (DAC) (FIG. 3). […]

[2] = system: Alu element methylation in SW48 cells; assay: COBRA (MboI) of Alu repetitive element PCR, SW48 cells treated with DAC; format: cell-based, human; settings: 5 μM DAC for three days, decrease from 28%
Experimental: as §1, §2, §3, §4

## Nc1ncn([C@H]2C[C@H](O)[C@@H](CO)O2)c(=O)n1 [decitabine, 5-aza-2′-deoxycytidine]
[1]
  Alu element methylation after treatment with DAC: 16%
[2]
  Alu methylation after treatment with DAC: 27%
